Measurements as given in patent US5637731A (priority 1996, dated 1997).
pKi: −log10 of the molar value. Several values for one entry are separate records, joined by “and”; a condition that tells them apart may be missing. Equal entries are not always repeated. Structures can show the parent of a compound that is named as a salt. Where two headings read alike, the source gives them in different places.

Assays:
[1] = test system: peripheral acetylcholine-like effects; test: Side effect profile: in vivo overt effects (salivation, tremor, diarrhea) after oral administration; set-up: species or system rat
Excerpt: The use of the radioligand binding assays (^3 H-QNB and ^3 H-CD) to characterize the hydroxylated oxotremorine derivatives provides a useful first approximation for,the evaluation of the muscarinic agonist-like profile of a test compound. However, in using a prodrug methodology, intrinsic activity will not be observed until in vivo hydrolysis or metabolism to the active compound occurs. Therefore, radioligand binding data, performed on the carbonyl derivatives, will not provide leading information. As a result, the observed overt effects after oral administration to rats of the test carbonyl derivative, relative to its corresponding hydroxylated oxotremorine compound, became the primary in vivo pharmacological measure. These in vivo overt effects are attributed to the peripheral acetylcholine-like effects of the compound, such as salivation, tremor and diarrhea. The in vivo overt effects also providing dosing information for the behavioral tests of cognitive improvement.

[2] = biological target: muscarinic cholinergic receptor; test: [^3 H]-Cis-methyldioxolane (^3 H-CD) Binding Assay (High Affinity); settings: rat cerebral cortex, ^3 H-CD 1.0 nM, 25° C., 120 minutes, pH 7.4; high affinity agonist binding
[3] = biological target: muscarinic cholinergic receptor; format: binding, rat; settings: rat cerebral cortex, ^3 H-QNB 0.25 nM, 25° C., 120 minutes, pH 7.4

Structure (SMILES) | Side Effect Profile minimum effective dose (MED) ([1]; (rat) po) | Side Effect Profile minimum effective dose (MED) ([1]; (rat) po; listed as R)-1-[4-(Dimethylamino)-2-butynyl]-2-oxo-3-pyrrolidinyl carbonic acid ethyl este) | pKi [2] | pKi [3]
CCCCCCCCNC(=O)O[C@H]1CCN(CC#CCN2CCCC2)C1=O [(S)-Octylcarbamic acid 2-oxo-1-[4-(1-pyrrolidinyl)-2-butynyl]-3-pyrrolidinyl ester] | > 450 μ mol/kg | – | – | –
CCCCNC(=O)O[C@H]1CCN(CC#CCN2CCCC2)C1=O [(S)-Butylcarbamic acid 1-2-oxo-[4-(1-pyrrolidinyl)-2-butynyl]-3-pyrrolidinyl ester] | 225 μ mol/kg | – | – | –
CCCCCCCCCC(=O)O[C@H]1CCN(CC#CCN2CCCC2)C1=O [(S)-Decanoic acid 2-oxo-1-[4-(1-pyrrolidinyl)-2-butynyl]-3-pyrrolidinyl ester] | 14 μ mol/kg | – | – | –
CCCCCC(=O)O[C@H]1CCN(CC#CCN(C)C)C1=O [(S)-Hexanoic acid 1-[4-(dimethylamino)-2-butynyl]-2-oxo-3-pyrrolidinyl ester] | 5.9 μ mol/kg | – | – | –
CCOC(=O)O[C@H]1CCN(CC#CCN(C)C)C1=O [(S)-1-[4-(Dimethylamino)-2-butynyl]-2-oxo-3-pyrrolidinyl carbonic acid ethyl ester] | 2.2 μ mol/kg | – | – | –
CCCCCCCC(=O)O[C@H]1CCN(CC#CCN2CCCC2)C1=O | 14 μ mol/kg | – | – | –
CCCCNC(=O)O[C@@H]1CCN(CC#CCN2CCCC2)C1=O [(R)-Butylcarbamic acid 2-oxo-1-[4-(1-pyrrolidinyl)-2-butynyl]-3-pyrrolidinyl ester] | > 243 μ mol/kg | – | – | –
CCCCOC(=O)O[C@@H]1CCN(CC#CCN2CCCC2)C1=O [(R)-2-Oxo-1-[4-(1-pyrrolidinyl)-2-butynyl]-3-pyrrolidinyl carbonic acid butyl ester] | 14 μ mol/kg | – | – | –
CCOC(=O)O[C@@H]1CCN(CC#CCN(C)C)C1=O [(R)-1-[4-(Dimethylamino)-2-butynyl]-2-oxo-3-pyrrolidinyl carbonic acid ethyl ester] | 127 μ mol/kg and 254 μ mol/kg | 258 μ mol/kg | – | –
CCCC(=O)O[C@H]1CCN(CC#CCN(C)C)C1=O [(S)-Butanoic acid 1-[4-(dimethylamino)-2-butynyl]-2-oxo-3-pyrrolidinyl ester] | 8.0 μ mol/kg | – | – | –
CCNC(=O)O[C@@H]1CCN(CC#CCN(C)C)C1=O [(R)-Ethylcarbamic acid 1-[4-(dimethylamino)-2-butynyl]-2-oxo-3-pyrrolidinyl ester] | > 510 μ mol/kg | – | – | –
CCCCNC(=O)O[C@H]1CCN(CC#CCN(C)C)C1=O [(S)-Butylcarbamic acid 1-[4-(dimethylamino)-2-butynyl]-2-oxo-3-pyrrolidinyl ester] | > 493 μ mol/kg | – | – | –
CCNC(=O)O[C@@H]1CCN(CC#CCN2CCCC2)C1=O [(R)-Ethylcarbamic acid 2-oxo-1-[4-(1-pyrrolidinyl)-2-butynyl]-3-pyrrolidinyl ester] | 28 μ mol/kg | – | – | –
CCCCCCNC(=O)O[C@H]1CCN(CC#CCN(C)C)C1=O [(S)-Hexylcarbamic acid 1-[4-(dimethylamino)-2-butynyl]-2-oxo-3-pyrrolidinyl ester] | > 510 μ mol/kg | – | – | –
CCNC(=O)O[C@H]1CCN(CC#CCN(C)C)C1=O [(S)-Ethylcarbamic acid 1-[4-(dimethylamino)-2-butynyl]-2-oxo-3-pyrrolidinyl ester] | > 510 μ mol/kg | – | – | –
CCNC(=O)O[C@H]1CCN(CC#CCN2CCCC2)C1=O [(S)-Ethylcarbamic acid 2-oxo-1-[4-(1-pyrrolidinyl)-2-butynyl]-3-pyrrolidinyl ester] | > 490 μ mol/kg | – | – | –

Structure (SMILES) | Side Effect Profile minimum effective dose (MED) ([1]; (rat) po) | Side Effect Profile minimum effective dose (MED) ([1]; (rat) po; listed as R)-1-[4-(Dimethylamino)-2-butynyl]-2-oxo-3-pyrrolidinyl carbonic acid ethyl este) | pKi [2] | pKi [3]
CCCCCC(=O)O[C@@H]1CCN(CC#CCN2CCCC2)C1=O [(R)-Hexanoic acid 2-oxo-1-[4-(1-pyrrolidinyl)-2-butynyl]-3-pyrrolidinyl ester] | 7.0 μ mol/kg | – | – | –
CCCCCCOC(=O)O[C@@H]1CCN(CC#CCN2CCCC2)C1=O [(R)-2-Oxo-1-[4-(1-pyrrolidinyl)-2-butynyl]-3-pyrrolidinyl carbonic acid hexyl ester] | 7 μ mol/kg | – | – | –
O=C1[C@@H](O)CCN1CC#CCN1CCC[C@@H]1CO [[S-(R*,S*)]-3-Hydroxy-1-[4-[2-(hydroxymethyl)-1-pyrrolidinyl]-2-butynyl]-2-pyrrolidinone] | – | – | 5.59 | < 4.00
CC(C)(C)[Si](C)(C)O[C@H]1CCN(CC#CCN2CCCC2)C1=O [(S)-3-[[(1,1-Dimethylethyl)-dimethylsily]0xy]-1-[4-(1-pyrrolidinyl)-2-butynyl]-2-pyrrolidinone] | – | – | 5.52 | 5.57
CC(C)(C)[Si](C)(C)OC[C@@H]1CCCN1CC#CCN1CC[C@@H](O)C1=O [[R-(R*,S*)]-1-[4-[2-[[[(1,1-dimethylethyl)dimethylsilyl]oxy]methyl]-1-pyrrolidinyl]-2-butynyl]-3-hydroxy-2-pyrrolidone] | – | – | 6.33 | 6.30
CC(=O)O[C@H]1CCN(CC#CCN(C)CCCCO)C1=O [(S)-3-(Acetyloxy)-1-[4-[(4-hydroxybutyl)methylamino]-2-butynyl]-2-pyrrolidinone] | – | – | 5.09 | < 4.00
CC1CCN(CC#CCn2ccnc2)C1=O (racemic) [Racemic 1-[4-(1H-imidazol-1-yl)-2-butynyl]-3-methyl-2-pyrrolidinone] | – | – | 7.24 | 5.17
C[N+](C)(C)CC#CCN1CC[C@H](N=[N+]=[N-])C1=O [(S)-4-(3-Azido-2-oxo-1-pyrrolidinyl)-N,N,N-trimethyl-2-butyn-1-aminium iodide] | – | – | 7.35 | 5.80
CCCCCCCCCC(=O)O[C@@H]1CCN(CC#CC[N+](C)(C)C)C1=O [(R)-4-[2-Oxo-3-[(1-oxodecyl)-oxy]-1-pyrrolidinyl]-N,N, N-trimethyl-2-butyn-1-aminium iodide] | – | – | 7.30 | 6.70
CCCCCCCCOC(=O)O[C@@H]1CCN(CC#CC[N+](C)(C)C)C1=O [(R)-N,N, N-Trimethyl-4-[3-[[(octyloxy)carbonyl]oxy]-2-oxo-1-pyrrolidinyl]-2-butyn-1-aminium iodide] | – | – | 8.00 | 6.70
CC(C)(C)C(=O)O[C@@H]1CCN(CC#CCN2CCCC2)C1=O [(R)-2,2-Dimethylpropanoic acid 2-oxo-1-[4-(1-pyrrolidinyl)-2-butynyl]-3-pyrrolidinyl ester] | – | – | 6.30 | 4.99
N[C@H]1CCN(CC#CCN2CCCC2)C1=O [(S)-3-Amino-1-[4-(1-pyrrolidinyl)-2-butynyl]-2-pyrrolidinone dihydrochloride] | – | – | 6.39 | 4.13
COC(=O)O[C@H]1CCN(CC#CCN(C)C)C1=O [(S)-Carbonic acid 1-[4-(dimethylamino)-2-butynyl]-2-oxo-3-pyrrolidinyl methyl ester] | – | – | 5.67 | 4.82
COC(=O)O[C@H]1CC(=O)N(CC#CCN2CCCC2)C1 [(S)-Carbonic acid methyl 2-oxo-1-[4-(1-pyrrolidinyl)-2-butynyl]-4-pyrrolidinyl ester] | – | – | 6.07 | 5.74
COC(=O)O[C@@H]1CCN(CC#CCN2CCCC2)C1=O [(R)-Carbonic acid methyl 2-oxo-1-[4-(1-pyrrolidinyl)-2-butynyl]-3-pyrrolidinyl ester] | – | – | 6.46 | 4.56
